In ChEMBL document CHEMBL4152302, “Benzo[d]thiazole-2-carbanilides as new anti-TB chemotypes: Design, synthesis, biological evaluation, and structure-activity relationship” (Eur J Med Chem, 2018):

Experiments:
[1] = tested on: Mycobacterium tuberculosis; assay: Antimycobacterial activity against Mycobacterium tuberculosis H37Rv ATCC 27294 after 28 days by Two-fold serial dilution assay; type: functional; details: H37Rv ATCC 27294, 672 h
[2] = Cytotoxicity against mouse RAW264.7 cells assessed as inhibition of cell viability at 50 ug/ml after 72 hrs by MTT assay relative to control; type: cell-based; details: read-out: INH
[3] = Selectivity index, ratio of cytotoxic concentration for mouse RAW264.7 cells to MIC99 for Mycobacterium tuberculosis H37Rv ATCC 27294; type: toxicity; details: read-out: Selectivity Index

| SMILES | MIC [1] | cytotoxicity at 72 h, 50 ug/ml [2] | selectivity ratio [3] |
| --- | --- | --- | --- |
| COc1ccc(NC(=O)c2nc3ccccc3s2)cc1 | 22 µM | 24.6% | – |
| O=C(Nc1ccc(N2CCOCC2)cc1)c1nc2ccccc2s1 | 4.6 µM | 18.9% | – |
| CCOC(=O)c1nc2ccccc2s1 | 121 µM | – | – |
| O=C(Nc1ccccc1)c1nc2ccccc2s1 | 98.3 µM | – | – |
| CCOC(=O)c1nc2cc(Cl)ccc2s1 | 12.9 µM | – | – |
| CCOC(=O)c1nc2cc(C(F)(F)F)ccc2s1 | 22.7 µM | – | – |
| O=C(Nc1cccc(C(F)(F)F)c1)c1nc2cc(Cl)ccc2s1 | 70.1 µM | – | – |
| Cc1cccc(NC(=O)c2nc3cc(C(F)(F)F)ccc3s2)c1 | 4.64 µM | 34.6% | – |
| O=C(Nc1ccc([N+](=O)[O-])cc1)c1nc2cc(Cl)ccc2s1 | 74.9 µM | – | – |
| O=C(Nc1cccc(C(F)(F)F)c1)c1nc2cc(C(F)(F)F)ccc2s1 | 16 µM | 19.8% | – |
| COc1cccc(NC(=O)c2nc3cc(Cl)ccc3s2)c1 | 2.45 µM | 18.7% | 64 |
| O=C(Nc1ccccc1Cl)c1nc2cc(C(F)(F)F)ccc2s1 | 70.1 µM | – | – |
| COc1cc(NC(=O)c2nc3ccccc3s2)cc(OC)c1OC | 2.26 µM | 30.1% | 64 |
| COc1ccccc1NC(=O)c1nc2cc(Cl)ccc2s1 | 78.4 µM | – | – |
| O=C(Nc1ccc(F)cc1)c1nc2ccccc2s1 | > 91.8 µM | – | – |
| Cc1ccc(NC(=O)c2nc3ccccc3s2)cc1 | 46.6 µM | – | – |
| O=C(Nc1cccc([N+](=O)[O-])c1)c1nc2cc(C(F)(F)F)ccc2s1 | 68.1 µM | – | – |
| COc1ccccc1NC(=O)c1nc2cc(C(F)(F)F)ccc2s1 | 4.43 µM | 43.2% | – |
| O=C(Nc1cccc(F)c1)c1nc2cc(Cl)ccc2s1 | 5.09 µM | 29.1% | – |
| O=C(Nc1ccc(Cl)cc1)c1nc2ccccc2s1 | > 86.6 µM | – | – |
| O=C(Nc1ccccc1N1CCOCC1)c1nc2cc(Cl)ccc2s1 | 66.9 µM | – | – |
| O=C(Nc1ccccc1)c1nc2cc(Cl)ccc2s1 | 86.6 µM | – | – |
| O=C(Nc1ccccc1)c1nc2cc(C(F)(F)F)ccc2s1 | 77.6 µM | – | – |
| O=C(Nc1ccc(N2CCOCC2)c(F)c1)c1nc2cc(Cl)ccc2s1 | 31.9 µM | – | – |
| O=C(Nc1cccc(F)c1)c1nc2cc(C(F)(F)F)ccc2s1 | 36.7 µM | – | – |
| O=C(Nc1cccc(Cl)c1)c1nc2cc(Cl)ccc2s1 | 77.3 µM | – | – |
| COc1cccc(NC(=O)c2nc3cc(C(F)(F)F)ccc3s2)c1 | 4.43 µM | 26.8% | – |

| SMILES | MIC [1] | cytotoxicity at 72 h, 50 ug/ml [2] | selectivity ratio [3] |
| --- | --- | --- | --- |
| O=C(Nc1ccc(N2CCOCC2)c(F)c1)c1nc2ccccc2s1 | > 70 µM | – | – |
| Cc1ccccc1NC(=O)c1nc2ccccc2s1 | > 93.2 µM | – | – |
| O=C(Nc1ccc(C(F)(F)F)cc1)c1nc2ccccc2s1 | 2.42 µM | 13.6% | 64 |
| O=C(Nc1ccc([N+](=O)[O-])cc1)c1nc2cc(C(F)(F)F)ccc2s1 | 2.12 µM | 32.6% | 64 |
| O=C(Nc1ccccc1N1CCOCC1)c1nc2cc(C(F)(F)F)ccc2s1 | 30.7 µM | – | – |
| COc1cc(NC(=O)c2nc3cc(Cl)ccc3s2)cc(OC)c1OC | 66 µM | – | – |
| O=C(Nc1ccc(C(F)(F)F)cc1)c1nc2cc(Cl)ccc2s1 | 4.37 µM | 41% | – |
| O=C(Nc1ccc(C(F)(F)F)cc1)c1nc2cc(C(F)(F)F)ccc2s1 | 64 µM | – | – |
| Cc1cccc(NC(=O)c2nc3cc(Cl)ccc3s2)c1 | 20.6 µM | 52.2% | – |
| O=C(Nc1cccc(C(F)(F)F)c1)c1nc2ccccc2s1 | 38.8 µM | – | – |
| Cc1ccccc1NC(=O)c1nc2cc(C(F)(F)F)ccc2s1 | 74.3 µM | – | – |
| O=C(Nc1ccc([N+](=O)[O-])cc1)c1nc2ccccc2s1 | 20.9 µM | 35.6% | – |
| COc1cccc(NC(=O)c2nc3ccccc3s2)c1 | > 87.9 µM | – | – |
| O=C(Nc1ccc(Br)cc1)c1nc2cc(Cl)ccc2s1 | 4.24 µM | 53.1% | – |
| COc1cc(NC(=O)c2nc3cc(C(F)(F)F)ccc3s2)cc(OC)c1OC | 1.89 µM | 23.4% | 64 |
| O=C(Nc1cccc(Cl)c1)c1nc2cc(C(F)(F)F)ccc2s1 | 35 µM | – | – |
| O=C(Nc1ccc(Cl)cc1)c1nc2cc(Cl)ccc2s1 | 2.35 µM | 28.9% | 64 |
| O=C(Nc1cccc(F)c1)c1nc2ccccc2s1 | 22.9 µM | 20.9% | – |
| O=C(Nc1ccc(N2CCOCC2)c(F)c1)c1nc2cc(C(F)(F)F)ccc2s1 | 29.4 µM | – | – |
| O=C(Nc1cccc(Cl)c1)c1nc2ccccc2s1 | 2.7 µM | 26.8% | 64 |
| O=C(Nc1ccc(Cl)cc1)c1nc2cc(C(F)(F)F)ccc2s1 | 2.19 µM | 36.7% | 64 |
| O=C(Nc1ccc(N2CCOCC2)cc1)c1nc2cc(Cl)ccc2s1 | 2.09 µM | 42.3% | 64 |
| O=C(Nc1ccccc1C(F)(F)F)c1nc2cc(Cl)ccc2s1 | 70.1 µM | – | – |
| O=C(Nc1ccccc1C(F)(F)F)c1nc2cc(C(F)(F)F)ccc2s1 | 2 µM | 27.8% | 64 |
| COc1ccc(NC(=O)c2nc3cc(Cl)ccc3s2)cc1 | 78.4 µM | – | – |
| Cc1ccc(NC(=O)c2nc3cc(C(F)(F)F)ccc3s2)cc1 | 4.64 µM | 47.8% | – |
| Cc1cc(C)c(NC(=O)c2nc3ccccc3s2)c(C)c1 | 5.26 µM | 17.9% | – |

| SMILES | MIC [1] | cytotoxicity at 72 h, 50 ug/ml [2] | selectivity ratio [3] |
| --- | --- | --- | --- |
| O=C(Nc1cccc([N+](=O)[O-])c1)c1nc2cc(Cl)ccc2s1 | 37.5 µM | – | – |
| O=C(Nc1ccc(F)cc1)c1nc2cc(C(F)(F)F)ccc2s1 | 73.5 µM | – | – |
| O=C(Nc1ccccc1Cl)c1nc2cc(Cl)ccc2s1 | 77.3 µM | – | – |
| O=C(Nc1cccc([N+](=O)[O-])c1)c1nc2ccccc2s1 | 2.61 µM | 38.4% | 64 |
| Cc1cccc(NC(=O)c2nc3ccccc3s2)c1 | > 93.2 µM | – | – |
| O=C(Nc1ccc(F)cc1)c1nc2cc(Cl)ccc2s1 | 5.09 µM | 34.6% | – |
| COc1ccccc1NC(=O)c1nc2ccccc2s1 | 11 µM | 16.7% | – |
| Cc1ccc(NC(=O)c2nc3cc(Cl)ccc3s2)cc1 | 5.15 µM | 22.6% | – |
| O=C(Nc1ccc(Br)cc1)c1nc2cc(C(F)(F)F)ccc2s1 | 62.3 µM | – | – |
| Cc1cc(C)c(NC(=O)c2nc3cc(Cl)ccc3s2)c(C)c1 | 75.6 µM | – | – |
| O=C(Nc1ccccc1N1CCOCC1)c1nc2ccccc2s1 | 36.8 µM | – | – |
| O=C(Nc1ccccc1F)c1nc2cc(Cl)ccc2s1 | 5.09 µM | 18.1% | – |
| COc1ccc(NC(=O)c2nc3cc(C(F)(F)F)ccc3s2)cc1 | 2.21 µM | 35.7% | 64 |
| O=C(Nc1ccccc1F)c1nc2cc(C(F)(F)F)ccc2s1 | 73.5 µM | – | – |
| Cc1ccccc1NC(=O)c1nc2cc(Cl)ccc2s1 | 82.6 µM | – | – |
| O=C(Nc1ccccc1C(F)(F)F)c1nc2ccccc2s1 | 38.8 µM | – | – |
| O=C(Nc1ccc(Br)cc1)c1nc2ccccc2s1 | > 75 µM | – | – |
| Cc1cc(C)c(NC(=O)c2nc3cc(C(F)(F)F)ccc3s2)c(C)c1 | 68.6 µM | – | – |
| O=C(Nc1ccccc1F)c1nc2ccccc2s1 | 11.5 µM | 24.9% | – |
| O=C(Nc1ccc(N2CCOCC2)cc1)c1nc2cc(C(F)(F)F)ccc2s1 | 61.4 µM | – | – |
| O=C(Nc1ccccc1Cl)c1nc2ccccc2s1 | 5.4 µM | 24% | – |
| CC[C@@H](CO)NCCN[C@@H](CC)CO [ETHAMBUTOL] | 1.56 µg/mL | – | – |
| NNC(=O)c1ccncc1 [ISONIAZID] | 0.098 µg/mL | – | – |
| NC(=O)c1cnccn1 [PYRAZINAMIDE] | 6.25 µg/mL | – | – |
| CO[C@H]1/C=C/O[C@@]2(C)Oc3c(C)c(O)c4c(O)c(c(/C=N/N5CCN(C)CC5)c(O)c4c3C2=O)NC(=O)/C(C)=C\C=C\[C@H](C)[C@H](O)[C@@H](C)[C@@H](O)[C@@H](C)[C@H](OC(C)=O)[C@@H]1C [RIFAMPIN] | 0.197 µg/mL | – | – |
